Data reported in ChEMBL document CHEMBL3822396 (J Med Chem, 2016).
Activity calls are given as the source filed them. The calls are words filed in the database; no cut-off is given here.

How the values were obtained:
Mus musculus [1] = assay: Antiinflammatory activity in C57Bl/6 mouse assessed as inhibition of FK156-induced serum KC level at 0.1 to 100 mg/kg, po for 15 mins prior to FK156-challenge measured after 2.5 hrs by FACS analysis; type: functional, organism-based
Mus musculus [2] = assay: Antiinflammatory activity in C57Bl/6 mouse assessed as inhibition of LPS-induced serum KC level at 10 mg/kg, po for 15 mins prior to LPS-challenge measured after 2.5 hrs; type: functional, organism-based
[3] = biological target: T1, Aurora kinase A (Homo sapiens) (UniProt O14965); assay: Inhibition of human full length N-terminal GST-tagged aurora-a expressed in baculovirus expression system at 1 uM
T1 sequence (whole entry): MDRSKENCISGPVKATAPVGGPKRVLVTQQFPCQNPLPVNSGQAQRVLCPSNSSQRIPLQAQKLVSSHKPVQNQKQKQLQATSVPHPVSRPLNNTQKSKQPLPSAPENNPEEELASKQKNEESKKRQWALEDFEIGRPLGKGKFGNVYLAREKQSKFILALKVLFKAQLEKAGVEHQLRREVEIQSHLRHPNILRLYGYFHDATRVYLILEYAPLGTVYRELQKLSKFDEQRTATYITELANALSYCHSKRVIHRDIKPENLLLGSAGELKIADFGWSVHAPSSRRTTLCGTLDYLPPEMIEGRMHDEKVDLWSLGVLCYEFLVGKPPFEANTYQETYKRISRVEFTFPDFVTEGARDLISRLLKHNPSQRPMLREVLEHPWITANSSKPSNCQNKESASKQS

[4] = biological target: Receptor-interacting serine/threonine-protein kinase 3 (Homo sapiens, UniProt Q9Y572); assay: Inhibition of RIPK3 (unknown origin) preincubated for 10 mins followed by addition of fluorescent-labeled 2-Methyl-5-(2-propen-l-yloxy)aniline measured after 10 mins by fluorescence polarization assay
[5] = biological target: T2, Nucleotide-binding oligomerization domain-containing protein 1 (Homo sapiens) (UniProt Q9Y239); assay: Activation of NOD1 in human monocytes assessed as inhibition of ieDAP-stimulated IL8 production preincubated for 30 mins prior to ieDAP stimulation at 1 uM measured after 6 hrs by immunoassay; type: cell-based
T2 sequence (whole entry): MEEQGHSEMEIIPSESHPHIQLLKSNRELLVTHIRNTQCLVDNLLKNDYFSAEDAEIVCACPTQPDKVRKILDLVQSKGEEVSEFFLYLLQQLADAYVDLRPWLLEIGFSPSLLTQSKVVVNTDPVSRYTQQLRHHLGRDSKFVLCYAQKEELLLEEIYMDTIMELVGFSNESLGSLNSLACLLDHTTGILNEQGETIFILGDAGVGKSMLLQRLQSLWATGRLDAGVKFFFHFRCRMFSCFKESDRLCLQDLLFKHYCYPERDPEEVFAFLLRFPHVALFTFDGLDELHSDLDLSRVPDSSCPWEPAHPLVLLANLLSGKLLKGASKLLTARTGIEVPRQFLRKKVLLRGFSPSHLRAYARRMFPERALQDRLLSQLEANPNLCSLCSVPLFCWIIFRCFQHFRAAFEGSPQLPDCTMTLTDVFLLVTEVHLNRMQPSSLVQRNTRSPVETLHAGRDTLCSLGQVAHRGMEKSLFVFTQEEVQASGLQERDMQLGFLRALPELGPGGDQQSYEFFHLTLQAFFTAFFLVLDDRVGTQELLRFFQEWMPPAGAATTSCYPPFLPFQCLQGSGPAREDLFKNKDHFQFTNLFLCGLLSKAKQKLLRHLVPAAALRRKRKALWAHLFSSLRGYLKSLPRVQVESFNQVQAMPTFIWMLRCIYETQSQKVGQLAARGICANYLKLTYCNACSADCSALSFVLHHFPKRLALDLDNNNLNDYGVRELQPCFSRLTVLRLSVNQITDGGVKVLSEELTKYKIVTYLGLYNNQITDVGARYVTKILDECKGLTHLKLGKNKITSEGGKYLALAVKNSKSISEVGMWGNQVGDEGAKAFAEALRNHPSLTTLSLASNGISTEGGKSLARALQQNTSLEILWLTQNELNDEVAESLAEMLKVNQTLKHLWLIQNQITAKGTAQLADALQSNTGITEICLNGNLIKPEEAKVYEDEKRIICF

[6] = biological target: T3, Toll-like receptor 7 (Homo sapiens) (UniProt Q9NYK1); assay: Activation of TLR7 receptor in human monocytes assessed as inhibition of gardiquimod-stimulated IL8 production preincubated for 30 mins prior to gardiquimod stimulation at 1 uM measured after 6 hrs by immunoassay; type: cell-based
T3 sequence (whole entry): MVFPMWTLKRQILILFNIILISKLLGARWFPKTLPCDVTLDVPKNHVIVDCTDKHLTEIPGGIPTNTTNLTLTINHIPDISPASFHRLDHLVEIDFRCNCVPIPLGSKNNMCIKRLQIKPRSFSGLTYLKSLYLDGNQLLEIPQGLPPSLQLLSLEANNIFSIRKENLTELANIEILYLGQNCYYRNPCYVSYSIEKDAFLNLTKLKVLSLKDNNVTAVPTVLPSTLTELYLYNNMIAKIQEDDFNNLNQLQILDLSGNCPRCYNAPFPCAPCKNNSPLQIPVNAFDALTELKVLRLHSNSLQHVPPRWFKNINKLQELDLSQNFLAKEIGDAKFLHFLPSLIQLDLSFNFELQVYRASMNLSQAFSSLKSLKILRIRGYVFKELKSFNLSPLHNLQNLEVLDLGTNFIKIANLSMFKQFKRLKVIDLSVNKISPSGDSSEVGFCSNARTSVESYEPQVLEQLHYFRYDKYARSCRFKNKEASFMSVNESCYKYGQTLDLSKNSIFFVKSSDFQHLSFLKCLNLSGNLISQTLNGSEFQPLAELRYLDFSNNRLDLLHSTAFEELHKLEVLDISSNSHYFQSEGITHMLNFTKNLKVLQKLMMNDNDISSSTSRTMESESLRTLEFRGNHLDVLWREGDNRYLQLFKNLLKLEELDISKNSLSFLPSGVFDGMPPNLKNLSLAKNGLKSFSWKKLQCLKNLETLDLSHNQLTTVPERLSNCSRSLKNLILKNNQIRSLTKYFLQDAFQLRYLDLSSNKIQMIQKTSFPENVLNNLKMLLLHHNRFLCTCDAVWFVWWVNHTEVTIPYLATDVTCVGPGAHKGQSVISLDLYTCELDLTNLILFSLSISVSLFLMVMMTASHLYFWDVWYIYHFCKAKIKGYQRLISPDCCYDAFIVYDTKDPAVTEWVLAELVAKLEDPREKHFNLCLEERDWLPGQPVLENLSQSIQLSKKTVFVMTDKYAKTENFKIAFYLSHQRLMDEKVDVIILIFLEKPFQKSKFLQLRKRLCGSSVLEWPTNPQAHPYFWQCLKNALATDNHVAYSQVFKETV

[7] = AUC in C57BL/6 mouse at 2 mg/kg, po by LC-MS/MS analysis; type: ADME, organism-based; conditions: in vivo
[8] = biological target: Vascular endothelial growth factor receptor 2 (Homo sapiens, UniProt P35968)
Sequence of Vascular endothelial growth factor receptor 2 (P35968 whole entry): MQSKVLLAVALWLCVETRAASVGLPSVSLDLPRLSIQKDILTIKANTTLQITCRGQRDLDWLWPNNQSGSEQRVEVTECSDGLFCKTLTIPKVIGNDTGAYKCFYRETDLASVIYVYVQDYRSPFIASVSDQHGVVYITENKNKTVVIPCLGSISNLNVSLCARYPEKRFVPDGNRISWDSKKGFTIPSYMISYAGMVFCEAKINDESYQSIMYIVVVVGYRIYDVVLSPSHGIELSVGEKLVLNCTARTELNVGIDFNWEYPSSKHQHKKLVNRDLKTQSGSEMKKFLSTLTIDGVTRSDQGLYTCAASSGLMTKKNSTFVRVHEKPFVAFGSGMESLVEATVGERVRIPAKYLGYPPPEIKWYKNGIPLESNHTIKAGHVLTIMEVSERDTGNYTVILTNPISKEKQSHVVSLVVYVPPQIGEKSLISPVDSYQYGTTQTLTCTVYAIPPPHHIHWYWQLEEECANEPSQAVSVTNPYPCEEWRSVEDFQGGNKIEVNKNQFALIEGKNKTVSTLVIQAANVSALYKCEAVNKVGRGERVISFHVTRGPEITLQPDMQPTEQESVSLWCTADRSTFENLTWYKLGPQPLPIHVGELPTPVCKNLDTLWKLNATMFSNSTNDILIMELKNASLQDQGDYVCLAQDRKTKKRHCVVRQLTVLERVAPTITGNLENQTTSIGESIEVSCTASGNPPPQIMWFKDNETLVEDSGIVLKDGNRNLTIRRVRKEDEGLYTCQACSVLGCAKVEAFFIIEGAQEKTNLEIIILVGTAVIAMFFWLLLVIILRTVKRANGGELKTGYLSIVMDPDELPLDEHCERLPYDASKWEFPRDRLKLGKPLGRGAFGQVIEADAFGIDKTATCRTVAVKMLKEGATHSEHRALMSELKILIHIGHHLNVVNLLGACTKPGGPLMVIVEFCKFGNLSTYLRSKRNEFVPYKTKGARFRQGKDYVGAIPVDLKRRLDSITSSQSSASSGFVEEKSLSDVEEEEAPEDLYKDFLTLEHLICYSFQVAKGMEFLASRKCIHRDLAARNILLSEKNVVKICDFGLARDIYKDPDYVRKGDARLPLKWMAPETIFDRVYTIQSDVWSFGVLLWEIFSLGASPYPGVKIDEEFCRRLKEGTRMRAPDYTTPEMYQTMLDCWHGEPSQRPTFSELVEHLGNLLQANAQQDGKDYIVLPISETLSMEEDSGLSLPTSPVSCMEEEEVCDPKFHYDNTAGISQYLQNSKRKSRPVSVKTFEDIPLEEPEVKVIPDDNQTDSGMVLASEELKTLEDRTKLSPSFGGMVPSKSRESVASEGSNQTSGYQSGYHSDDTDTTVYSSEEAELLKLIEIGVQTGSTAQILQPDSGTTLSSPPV

Sequence of Receptor-interacting serine/threonine-protein kinase 3 (Q9Y572 whole entry, the tested form may be a part): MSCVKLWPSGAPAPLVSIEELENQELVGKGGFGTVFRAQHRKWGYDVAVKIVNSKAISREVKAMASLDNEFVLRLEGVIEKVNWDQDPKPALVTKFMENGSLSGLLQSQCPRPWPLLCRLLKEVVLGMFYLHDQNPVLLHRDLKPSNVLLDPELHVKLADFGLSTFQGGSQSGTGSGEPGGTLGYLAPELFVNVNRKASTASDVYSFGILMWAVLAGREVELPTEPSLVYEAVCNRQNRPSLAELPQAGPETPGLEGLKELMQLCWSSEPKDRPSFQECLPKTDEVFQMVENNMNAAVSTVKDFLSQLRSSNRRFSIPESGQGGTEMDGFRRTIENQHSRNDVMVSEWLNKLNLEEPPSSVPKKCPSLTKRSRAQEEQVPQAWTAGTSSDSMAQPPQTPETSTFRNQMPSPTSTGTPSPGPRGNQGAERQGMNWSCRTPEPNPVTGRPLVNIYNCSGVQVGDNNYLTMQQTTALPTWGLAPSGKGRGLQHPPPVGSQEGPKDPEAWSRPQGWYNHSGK

Structure (SMILES): CC(C)(C)S(=O)(=O)c1ccc2nccc(Nc3n[nH]c4ccc(F)cc34)c2c1
- inhibition (Mus musculus [1]): Active
- inhibition (Mus musculus [2]): inactive
- inhibition [3]: 30%
- IC50 [4]: 16 nM
- inhibition [5]: Active
- inhibition [6]: Active
- AUC [7]: 860 ng·h/mL
- IC50 [8]: > 5000 nM
